US20260297095A1, “NOVEL PYRROLOTRIAZINE DERIVATIVE AND USE THEREOF” (Pelemed Co., Ltd., priority 2024, published 2026)
Read-outs that look alike come from different tables or passages of the source.

Legend:
[1] = system: KYSE-70 esophageal cancer cell line; test: Cell growth inhibition of KYSE-70 (Sulforhodamine B); type: cell-based; details: KYSE-70, 72 hours, read-out: KYSE70 GI50
Summary of the method: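 KYSE-70 cells (YES1-amplified) in RPMI-1640 with 10% FBS were seeded 24 h before treatment with compound at 0.0046–10 µM final. After 72 h, cells were TCA-fixed and stained with sulforhodamine B, with absorbance read at 510 nm. GI50 was derived with a time-zero plate set to 0% and the vehicle control to 100%, in duplicate tests.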

YES1 kinase = YES1 kinase (Homo sapiens, UniProt P07947); test: YES1 kinase inhibition, ADP Glo assay (Promega); type: biochemical; details: for YES1 kinase inhibition at 1 nM (in words) / inhibition at 0.001 µM: compound 1 nM; for inhibition at 0.001 µM: read-out: YES1 enzyme, % inhibition, 1 nM; for inhibition at 0.01 µM / YES1 enzyme, % inhibition, 10 nM: compound 10 nM; for inhibition at 0.01 µM: read-out: YES1 enzyme, % inhibition, 10 nM; for inhibition at 0.1 µM / YES1 enzyme, % inhibition, 100 nM: compound 100 nM; for inhibition at 0.1 µM: read-out: YES1 enzyme, % inhibition, 100 nM; for IC50: class symbols, read-out: YES1 enzyme, IC50
YES1 kinase, sequence (P07947 whole entry): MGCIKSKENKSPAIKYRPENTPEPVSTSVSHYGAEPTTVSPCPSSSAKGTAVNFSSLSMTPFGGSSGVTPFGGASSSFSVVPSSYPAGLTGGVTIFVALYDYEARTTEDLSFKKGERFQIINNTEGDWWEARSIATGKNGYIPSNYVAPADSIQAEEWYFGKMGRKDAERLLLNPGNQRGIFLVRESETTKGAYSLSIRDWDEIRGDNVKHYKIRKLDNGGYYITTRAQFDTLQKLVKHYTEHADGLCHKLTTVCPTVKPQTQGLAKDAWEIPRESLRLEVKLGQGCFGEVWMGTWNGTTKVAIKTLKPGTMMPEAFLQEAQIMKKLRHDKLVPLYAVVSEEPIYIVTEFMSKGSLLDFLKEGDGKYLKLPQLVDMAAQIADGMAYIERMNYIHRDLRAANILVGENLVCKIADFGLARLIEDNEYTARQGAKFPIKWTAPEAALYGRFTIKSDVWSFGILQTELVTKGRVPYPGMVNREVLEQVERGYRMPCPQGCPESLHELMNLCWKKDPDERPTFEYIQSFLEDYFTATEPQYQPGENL
Summary of the method: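 YES1 kinase was preincubated 10 min with compound in Mn2+/DTT-containing kinase buffer, then reacted 40 min at room temperature with ATP/substrate; ADP was detected by ADP-Glo luminescence. Activity, background-subtracted and normalised to negative control, is given as % inhibition at 1, 10 and 100 nM, plus IC50.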

TEAD (Homo sapiens) = biological target: T1, TEAD (Homo sapiens); test: TEAD inhibition, KYSE-70 TEAD luciferase reporter cell line; type: cell-based; details: KYSE-70 TEAD luciferase reporter cells, 24 hours, normalized by cell viability; read-out: KYSE70 TEAD IC50
T1 construct: lentiviral TEAD luciferase reporter read-out
T1 sequence (P07947 whole entry): as above
Description: To evaluate the inhibitory activity on TEAD activity in KYSE-70 cells in which YES1 is overexpressed, the following experiment was performed.
TEAD luciferase reporter lentivirus (BPS Bioscience; TEAD luciferase reporter lentivirus) was co-cultured with KYSE-70 cell line for 48 hours, and then 1 μg/ml puromycin (Invitrogen) was added to the culture to induce cell death only in cells that were not infected with the virus, thereby generating a KYSE-70 cell line into which the TEAD luciferase reporter was introduced. The KYSE-70 TEAD luciferase reporter cell line was cultured in RPMI-1640 (Capricorn) supplemented with 10% FBS (Cellgro). The cells were seeded 24 hours prior to compound treatment into two 96-well F-bottom clear plates (Greiner) and two white clear bottom 96-well plates (Greiner), at 20,000 cells in 180 μL medium per well.
The 10 mM compound was diluted 100-fold in medium to prepare a 100 μM compound, then placed in a 96-well plate and further 3-fold diluted in medium to prepare a compound plate with concentrations ranging from 0.046 μM to 100 μM. 20 μL of each compound from the drug plate was injected into the cell-seeded plates to prepare the final concentrations 0.0046 μM to 10 μM. For TEAD activity measurement, 24 hours after compound treatment on the white clear bottom 96-well plate, 100 μL of medium was removed from each well, and 100 μL of One-Step™ Luciferase Assay System solution was added. After reacting at room temperature for 15 minutes, luminescence intensity was measured using a microplate reader (VICTOR X3, PerkinElmer). Since TEAD activity values needed to be normalized by cell viability, a cell viability assay was also performed. For measuring cell viability, 24 hours after compound treatment on the 96-well F-bottom clear plate, 50 μL of 33% trichloroacetic acid was added to each well and was fixed by incubating at 4° C. for 1 hour. After that, the plate was washed 5 times with sterile water, and 100 μL of 0.04% Sulforhodamine B solution in 1% acetic acid was added to react for 1 hour to stain the cells. After staining, the plates were washed 4 times with 1% acetic acid solution and completely dried. Then the Sulforhodamine B bound to cellular proteins was completely dissolved with 10 mM Tris base solution (pH 10.5). The absorbance was measured at a wavelength of 510 nm using a microplate reader (TECAN, sunrise microplate reader). The TEAD activity value and cell viability value were normalized, and a graph was drawn using the GraphPad Prism version 5.0 program, and the IC50 value was calculated.

Row | Molecule | GI50 ([1]; Homo sapiens) | inhibition at 0.01 µM (YES1 kinase) | inhibition at 0.1 µM (YES1 kinase) | IC50 (YES1 kinase) | IC50 (TEAD (Homo sapiens)) | GI50 [1] | other results
1 | COc1cc(-c2cc(N[C@H]3CC[C@H](N(C)C)C3)n3ncnc(N)c23)ccc1NC(=O)OC(C)(C)C [Example 112, tert-butyl (4-(4-amino-7-(((1S,3S)-3-(dimethylamino)cyclopentyl)amino)pyrrolo[2,1-f][1,2,4]triazin-5-yl)-2-methoxyphenyl)carbamate] | 100 to 1000 nM | 60% | – | – | – | – | YES1 kinase inhibition at 1 nM (in words) (YES1 kinase): could be inhibited even at a low concentration of 1 nM; inhibition at 0.001 µM (YES1 kinase): 29%
2 | COc1cc(-c2cc(N[C@H]3CC[C@H](N)C3)n3ncnc(N)c23)ccc1NC(=O)OC(C)(C)C [Example 116, tert-butyl (4-(4-amino-7-(((1S,3S)-3-aminocyclopentyl)amino)pyrrolo[2,1-f][1,2,4]triazin-5-yl)-2-methoxyphenyl)carbamate] | 100 to 1000 nM | 63% | – | – | – | – | YES1 kinase inhibition at 1 nM (in words) (YES1 kinase): could be inhibited even at a low concentration of 1 nM; inhibition at 0.001 µM (YES1 kinase): 30%
3 | COc1cc(-c2cc(NCC3CCNCC3)n3ncnc(N)c23)ccc1NC(=O)OC(C)(C)C [Example 117, tert-butyl (4-(4-amino-7-((piperidin-4-ylmethyl)amino)pyrrolo[2,1-f][1,2,4]triazin-5-yl)-2-methoxyphenyl)carbamate] | 100 to 1000 nM | 39% | 64% | – | – | – | –
4 | COc1cc(-c2cc(N[C@H]3C[C@H](N)C3)n3ncnc(N)c23)ccc1NC(=O)OC(C)(C)C [Example 119, tert-butyl (4-(4-amino-7-(((1r,3r)-3-aminocyclobutyl)amino)pyrrolo[2,1-f][1,2,4]triazin-5-yl)-2-methoxyphenyl)carbamate] | 100 to 1000 nM | 55% | – | – | – | – | YES1 kinase inhibition at 1 nM (in words) (YES1 kinase): could be inhibited even at a low concentration of 1 nM; inhibition at 0.001 µM (YES1 kinase): 24%
5 | COc1cc(-c2cc(NC3CCNCC3)n3ncnc(N)c23)ccc1NC(=O)OC(C)(C)C [Example 120, tert-butyl (4-(4-amino-7-(piperidin-4-ylamino)pyrrolo[2,1-f][1,2,4]triazin-5-yl)-2-methoxyphenyl)carbamate] | 100 to 1000 nM | 40% | 78% | – | – | – | –
6 | COc1cc(-c2cc(N[C@H]3CC[C@@H](N)CC3)n3ncnc(N)c23)ccc1NC(=O)OC(C)(C)C [Example 121, tert-butyl (4-(4-amino-7-(((1s,4s)-4-aminocyclohexyl)amino)pyrrolo[2,1-f][1,2,4]triazin-5-yl)-2-methoxyphenyl)carbamate] | 100 to 1000 nM | 50% | 77% | – | – | – | –
7 | COc1cc(-c2cc(N3CCC(C)(CN)CC3)n3ncnc(N)c23)ccc1NC(=O)OC(C)(C)C [Example 123, tert-butyl (4-(4-amino-7-(4-(aminomethyl)-4-methylpiperidin-1-yl)pyrrolo[2,1-f][1,2,4]triazin-5-yl)-2-methoxyphenyl)carbamate] | ≤ 100 nM | – | – | ≤ 100 nM | – | – | –
8 | COc1cc(-c2c(F)c(N3CCC(N)CC3)n3ncnc(N)c23)ccc1NC(=O)OC(C)(C)C [Example 127, tert-butyl (4-(4-amino-7-(4-aminopiperidin-1-yl)-6-fluoropyrrolo[2,1-f][1,2,4]triazin-5-yl)-2-methoxyphenyl)carbamate] | ≤ 100 nM | 67% | 88% | ≤ 100 nM | – | – | –
9 | COc1cc(-c2c(F)c(N3CCC(N(C)C)CC3)n3ncnc(N)c23)ccc1NC(=O)OC(C)(C)C [Example 128, tert-butyl (4-(4-amino-7-(4-(dimethylamino)piperidin-1-yl)-6-fluoropyrrolo[2,1-f][1,2,4]triazin-5-yl)-2-methoxyphenyl)carbamate] | ≤ 100 nM | 72% | 92% | ≤ 100 nM | – | – | –
10 | CNC1CCN(c2c(F)c(-c3ccc(NC(=O)OC(C)(C)C)c(OC)c3)c3c(N)ncnn23)CC1 [Example 129, tert-butyl (4-(4-amino-6-fluoro-7-(4-(methylamino)piperidin-1-yl)pyrrolo[2,1-f][1,2,4]triazin-5-yl)-2-methoxyphenyl)carbamate] | ≤ 100 nM | 70% | 92% | ≤ 100 nM | – | – | –
11 | Nc1ncnn2c(N3CCC(N)CC3)cc(-c3ccc(Oc4ccccc4)cc3)c12 [Example 135, 7-(4-aminopiperidin-1-yl)-5-(4-phenoxyphenyl)pyrrolo[2,1-f][1,2,4]triazin-4-amine] | ≤ 100 nM | 62% | 87% | – | – | – | –
12 | CN(C)C1CCN(c2cc(-c3ccc(Oc4ccccc4)cc3)c3c(N)ncnn23)CC1 [Example 136, 7-(4-(dimethylamino)piperidin-1-yl)-5-(4-phenoxyphenyl)pyrrolo[2,1-f][1,2,4]triazin-4-amine] | ≤ 100 nM | 64% | 90% | – | – | – | –
13 | COc1cc(-c2cc(N3CCC(N)CC3)n3ncnc(N)c23)ccc1NC(=O)c1ccco1 [Example 137, N-(4-(4-amino-7-(4-aminopiperidin-1-yl)pyrrolo[2,1-f][1,2,4]triazin-5-yl)-2-methoxyphenyl)furan-2-carboxamide] | 100 to 1000 nM | – | – | ≤ 100 nM | – | – | –
14 | COc1cc(-c2cc(N3CCC(N)CC3)n3ncnc(N)c23)ccc1NC(=O)c1ccoc1 [Example 138, N-(4-(4-amino-7-(4-aminopiperidin-1-yl)pyrrolo[2,1-f][1,2,4]triazin-5-yl)-2-methoxyphenyl)furan-3-carboxamide] | > 10000 nM | – | – | ≤ 100 nM | – | – | –
15 | tert-butyl (4-(4-amino-7-(4-(dimethylamino)-3-methoxyphenyl)pyrrolo[2,1-f][1,2,4]triazin-5-yl)-2-methoxyphenyl)carbamate [Example 5] | – | – | – | – | 100 to 1000 nM | 100 to 1000 nM | YES1 enzyme, % inhibition, 10 nM (YES1 kinase): 38%; YES1 enzyme, % inhibition, 100 nM (YES1 kinase): 68%
16 | tert-butyl (4-(4-amino-7-(4-(dimethylamino)-4-methylpiperidin-1-yl)pyrrolo[2,1-f][1,2,4]triazin-5-yl)-2-methoxyphenyl)carbamate [Example 13] | – | – | – | – | ≤ 100 nM | ≤ 100 nM | YES1 enzyme, % inhibition, 10 nM (YES1 kinase): 77%; YES1 enzyme, % inhibition, 100 nM (YES1 kinase): 93%
17 | tert-butyl (4-(4-amino-7-(4-(methylamino)piperidin-1-yl)pyrrolo[2,1-f][1,2,4]triazin-5-yl)-2-methoxyphenyl)carbamate [Example 58] | – | – | – | ≤ 100 nM | ≤ 100 nM | 100 to 1000 nM | –
18 | tert-butyl (4-(4-amino-7-(4-(tert-butyl)piperazin-1-yl)pyrrolo[2,1-f][1,2,4]triazin-5-yl)-2-methoxyphenyl)carbamate [Example 16] | – | – | – | – | 1000 to 10000 nM | 1000 to 10000 nM | YES1 enzyme, % inhibition, 10 nM (YES1 kinase): 30%; YES1 enzyme, % inhibition, 100 nM (YES1 kinase): 36%
19 | tert-butyl (4-(4-amino-7-(4-aminopiperidin-1-yl)-6-methylpyrrolo[2,1-f][1,2,4]triazin-5-yl)-2-methoxyphenyl)carbamate [Example 78] | – | – | – | – | ≤ 100 nM | ≤ 100 nM | –
20 | tert-butyl (4-(4-amino-7-(6-(dimethylamino)pyridin-3-yl)pyrrolo[2,1-f][1,2,4]triazin-5-yl)-2-methoxyphenyl)carbamate [Example 6] | – | – | – | – | ≤ 100 nM | 1000 to 10000 nM | YES1 enzyme, % inhibition, 10 nM (YES1 kinase): 41%; YES1 enzyme, % inhibition, 100 nM (YES1 kinase): 46%
